Laboratory results taken from patent publication US20250092017A1, “2-PIPERIDYL OR 2-PYRAZOLYL SUBSTITUTED PYRIMIDINE COMPOUND SERVING AS EGFR INHIBITOR” (SUZHOU PUHE BIOPHARMA CO., LTD., priority 2022, published 2025).
Read-outs that look alike come from different tables or passages of the source.

Tests used:
Type in all cases: cell-based
Ba/F3-FL-EGFR = biological target: T1, Ba/F3-FL-EGFR (Homo sapiens, UniProt P00533); assay: CellTiter-Glo proliferation, Ba/F3-FL-EGFR; conditions: 72 hours, read-out: Ba/F3-FL-EGFR IC50/nM
T1 construct: FL read as full length
Procedure: (§1) Promega CellTiter-Glo reagent was used to detect the effects of small molecule inhibitors on the proliferation of five Ba/F3 cell lines (Ba/F3-FL-EGFR, Ba/F3-FL-EGFR-L858R, Ba/F3-FL-EGFR-L858R-T790M-C797S, Ba/F3-TEL-EGFR-L858R-C797S and Ba/F3-FL-EGFR-del19-C797S).
(§2) The cell lines were cultured in an incubator at 37° C. and 5% CO2. Cells were passaged regularly and cells in the logarithmic phase were used for plating. 95 μL of cell suspension was added to each well of the cell plate, and culture medium without cells (containing 0.1% DMSO) was added to the Min control wells. Substance addition for compound detection cell plate: 5 μL of 20× compound working solution was added to the cell culture plate as shown in the table below. 50 μL of DMSO-cell culture medium mixture was added to the Max control, with the final DMSO concentration of 0.1%. 5 μL of DMSO-cell culture medium mixture was added to the Max control. The final DMSO concentration was 0.1%.
(§3) The compounds to be tested were added as per the table below
(§4) Cell viability was detected by CellTiter-Glo luminescence assay. Data analysis:
(§5) The cell proliferation inhibition rate (Inhibition Rate) data was processed using the following formula: […]
(§6) wherein: RLUDrug represents the relative luminescence unit of the cells with the addition of drug, RLUMin represents the luminescence unit of the culture medium, and RLUMax represents the relative luminescence unit of the cells with the addition of DMSO.
(§7) The inhibition rates corresponding to different concentrations of compounds were calculated in EXCEL, and then the inhibition rate curve was plotted using GraphPad Prism software and related parameters including the maximum and minimum inhibition rates of cells and IC50 values were calculated.

[1] = tested on: Ba/F3-FL-EGFR-del19-C797S; assay: CellTiter-Glo proliferation, Ba/F3-FL-EGFR-del19-C797S; conditions: proliferation, 72 hours, CellTiter-Glo, read-out: Ba/F3-FL-EGFR-del19-C797S IC50/nM
Procedure: as §1, §2, §3, §4, §5, §6, §7

Ba/F3-FL-EGFR-L858R = Ba/F3-FL-EGFR-L858R (Homo sapiens, UniProt P00533, L858R, cells depend on it); assay: CellTiter-Glo proliferation, Ba/F3-FL-EGFR-L858R; conditions: 72 hours, read-out: Ba/F3-FL-EGFR-L858R IC50/nM
Procedure: as §1, §2, §3, §4, §5, §6, §7

[2] = biological target: T2, Ba/F3-TEL-EGFR-L858R-C797S (Homo sapiens, UniProt P00533, C797S/L858R, cells depend on it); assay: CellTiter-Glo proliferation, Ba/F3-TEL-EGFR-L858R-C797S; conditions: 72 hours, read-out: Ba/F3-TEL-EGFR-L858R-C797S IC50/nM
T2 construct: fused on or other part: N-terminal TEL (ETV6) oligomerising part fused to the EGFR intracellular/kinase part; P41212 (Transcription factor ETV6)
Procedure: as §1, §2, §3, §4, §5, §6, §7

[3] = biological target: Ba/F3-FL-EGFR-L858R-T790M-C797S (Homo sapiens, UniProt P00533, T790M/C797S/L858R, cells depend on it); assay: CellTiter-Glo proliferation, Ba/F3-FL-EGFR-L858R-T790M-C797S; conditions: 72 hours, read-out: Ba/F3-FL-EGFR-L858R-T790M-C797S IC50/nM
Procedure: as §1, §2, §3, §4, §5, §6, §7

T2 sequence (P00533 whole entry C797S/L858R, the tested form may be a part): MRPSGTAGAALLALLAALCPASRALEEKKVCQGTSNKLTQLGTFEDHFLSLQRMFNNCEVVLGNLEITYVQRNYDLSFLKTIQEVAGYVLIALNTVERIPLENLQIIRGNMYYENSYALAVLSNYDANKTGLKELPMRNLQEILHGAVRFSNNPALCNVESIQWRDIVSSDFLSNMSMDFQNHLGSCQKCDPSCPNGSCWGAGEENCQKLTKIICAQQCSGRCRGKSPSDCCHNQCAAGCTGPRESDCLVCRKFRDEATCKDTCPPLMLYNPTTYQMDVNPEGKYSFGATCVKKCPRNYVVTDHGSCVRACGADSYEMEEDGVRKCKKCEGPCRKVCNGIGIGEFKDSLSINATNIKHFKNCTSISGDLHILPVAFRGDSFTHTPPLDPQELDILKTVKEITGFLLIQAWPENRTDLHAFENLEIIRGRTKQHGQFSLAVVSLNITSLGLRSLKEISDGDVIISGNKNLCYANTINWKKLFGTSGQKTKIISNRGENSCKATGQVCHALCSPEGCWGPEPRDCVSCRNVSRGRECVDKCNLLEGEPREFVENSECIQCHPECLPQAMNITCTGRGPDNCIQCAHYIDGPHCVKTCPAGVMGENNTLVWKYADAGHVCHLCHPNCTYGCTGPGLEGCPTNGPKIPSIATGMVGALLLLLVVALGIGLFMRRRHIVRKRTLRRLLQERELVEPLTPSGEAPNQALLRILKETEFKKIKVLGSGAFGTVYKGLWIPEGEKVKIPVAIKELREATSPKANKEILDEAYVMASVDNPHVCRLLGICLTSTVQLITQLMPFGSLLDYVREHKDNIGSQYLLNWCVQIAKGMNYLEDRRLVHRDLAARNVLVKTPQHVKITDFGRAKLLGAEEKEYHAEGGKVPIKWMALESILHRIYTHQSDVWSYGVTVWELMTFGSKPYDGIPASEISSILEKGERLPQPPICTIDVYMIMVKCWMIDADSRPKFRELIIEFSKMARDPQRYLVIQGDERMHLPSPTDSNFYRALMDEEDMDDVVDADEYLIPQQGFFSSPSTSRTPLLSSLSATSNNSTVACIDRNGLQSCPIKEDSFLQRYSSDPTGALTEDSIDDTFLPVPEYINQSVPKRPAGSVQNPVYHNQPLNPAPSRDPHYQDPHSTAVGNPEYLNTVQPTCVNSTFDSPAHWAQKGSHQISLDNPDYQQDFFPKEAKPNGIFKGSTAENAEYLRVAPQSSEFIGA
Sequence of Ba/F3-FL-EGFR-L858R (P00533 whole entry L858R): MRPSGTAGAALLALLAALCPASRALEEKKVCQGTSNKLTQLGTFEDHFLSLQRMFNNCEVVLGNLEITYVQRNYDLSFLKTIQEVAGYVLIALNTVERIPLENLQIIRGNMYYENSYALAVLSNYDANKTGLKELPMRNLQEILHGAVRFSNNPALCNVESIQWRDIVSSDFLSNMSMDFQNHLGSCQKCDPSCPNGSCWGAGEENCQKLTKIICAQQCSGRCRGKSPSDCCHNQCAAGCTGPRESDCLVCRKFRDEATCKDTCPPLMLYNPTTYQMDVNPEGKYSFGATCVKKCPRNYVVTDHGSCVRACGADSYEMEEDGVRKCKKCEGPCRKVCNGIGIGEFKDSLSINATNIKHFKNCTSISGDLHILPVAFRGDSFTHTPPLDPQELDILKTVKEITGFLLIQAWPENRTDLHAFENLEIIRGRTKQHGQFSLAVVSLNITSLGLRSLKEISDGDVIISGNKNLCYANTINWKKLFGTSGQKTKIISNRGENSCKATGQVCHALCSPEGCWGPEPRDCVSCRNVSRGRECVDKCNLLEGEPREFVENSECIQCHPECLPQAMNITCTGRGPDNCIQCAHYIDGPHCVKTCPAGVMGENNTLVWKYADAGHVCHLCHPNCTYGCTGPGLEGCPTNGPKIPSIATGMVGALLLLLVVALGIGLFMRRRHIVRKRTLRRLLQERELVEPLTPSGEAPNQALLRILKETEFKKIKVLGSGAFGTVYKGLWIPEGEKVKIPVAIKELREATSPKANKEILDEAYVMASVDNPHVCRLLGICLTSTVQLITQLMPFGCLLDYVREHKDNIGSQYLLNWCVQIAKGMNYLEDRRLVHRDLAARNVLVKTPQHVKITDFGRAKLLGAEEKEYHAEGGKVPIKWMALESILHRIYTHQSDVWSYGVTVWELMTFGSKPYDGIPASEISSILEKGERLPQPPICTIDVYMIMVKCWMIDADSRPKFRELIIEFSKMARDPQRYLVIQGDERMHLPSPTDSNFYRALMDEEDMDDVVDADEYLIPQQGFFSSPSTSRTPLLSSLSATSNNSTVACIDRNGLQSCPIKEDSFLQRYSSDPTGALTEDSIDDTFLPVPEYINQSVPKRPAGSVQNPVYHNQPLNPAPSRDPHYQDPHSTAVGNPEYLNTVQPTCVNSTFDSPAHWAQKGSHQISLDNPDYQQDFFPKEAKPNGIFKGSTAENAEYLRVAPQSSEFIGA
Sequence of Ba/F3-FL-EGFR-L858R-T790M-C797S (P00533 whole entry T790M/C797S/L858R): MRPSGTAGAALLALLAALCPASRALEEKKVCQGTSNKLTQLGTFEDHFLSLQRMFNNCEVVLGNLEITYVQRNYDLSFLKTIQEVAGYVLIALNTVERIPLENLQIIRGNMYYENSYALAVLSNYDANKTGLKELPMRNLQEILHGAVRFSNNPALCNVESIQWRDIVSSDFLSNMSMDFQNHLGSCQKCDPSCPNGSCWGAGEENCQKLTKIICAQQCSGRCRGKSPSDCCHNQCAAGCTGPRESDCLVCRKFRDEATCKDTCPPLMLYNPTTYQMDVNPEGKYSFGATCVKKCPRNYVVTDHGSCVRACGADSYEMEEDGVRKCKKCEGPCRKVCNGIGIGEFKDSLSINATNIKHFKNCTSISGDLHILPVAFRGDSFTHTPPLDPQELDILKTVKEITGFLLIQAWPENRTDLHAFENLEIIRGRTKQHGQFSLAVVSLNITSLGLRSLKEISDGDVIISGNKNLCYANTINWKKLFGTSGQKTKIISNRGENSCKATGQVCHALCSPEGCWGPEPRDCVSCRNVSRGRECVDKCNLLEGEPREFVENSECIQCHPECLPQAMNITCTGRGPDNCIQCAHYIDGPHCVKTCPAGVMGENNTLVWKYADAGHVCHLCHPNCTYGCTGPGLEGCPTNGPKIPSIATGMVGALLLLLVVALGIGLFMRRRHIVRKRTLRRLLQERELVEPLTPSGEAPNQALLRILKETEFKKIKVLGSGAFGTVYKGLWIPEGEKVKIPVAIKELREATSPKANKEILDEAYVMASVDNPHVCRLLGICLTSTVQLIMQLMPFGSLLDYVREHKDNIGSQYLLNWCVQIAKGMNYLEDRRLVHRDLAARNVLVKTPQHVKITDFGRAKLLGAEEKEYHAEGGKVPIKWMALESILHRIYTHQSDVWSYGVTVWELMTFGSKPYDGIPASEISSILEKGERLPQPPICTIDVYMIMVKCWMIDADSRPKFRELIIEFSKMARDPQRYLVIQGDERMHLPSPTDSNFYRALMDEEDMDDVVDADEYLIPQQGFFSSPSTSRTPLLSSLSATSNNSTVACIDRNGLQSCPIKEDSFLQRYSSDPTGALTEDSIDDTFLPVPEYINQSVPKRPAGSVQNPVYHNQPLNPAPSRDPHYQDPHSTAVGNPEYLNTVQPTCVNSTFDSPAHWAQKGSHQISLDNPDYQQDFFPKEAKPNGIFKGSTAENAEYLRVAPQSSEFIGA
T1 sequence (P00533 whole entry, change not shown): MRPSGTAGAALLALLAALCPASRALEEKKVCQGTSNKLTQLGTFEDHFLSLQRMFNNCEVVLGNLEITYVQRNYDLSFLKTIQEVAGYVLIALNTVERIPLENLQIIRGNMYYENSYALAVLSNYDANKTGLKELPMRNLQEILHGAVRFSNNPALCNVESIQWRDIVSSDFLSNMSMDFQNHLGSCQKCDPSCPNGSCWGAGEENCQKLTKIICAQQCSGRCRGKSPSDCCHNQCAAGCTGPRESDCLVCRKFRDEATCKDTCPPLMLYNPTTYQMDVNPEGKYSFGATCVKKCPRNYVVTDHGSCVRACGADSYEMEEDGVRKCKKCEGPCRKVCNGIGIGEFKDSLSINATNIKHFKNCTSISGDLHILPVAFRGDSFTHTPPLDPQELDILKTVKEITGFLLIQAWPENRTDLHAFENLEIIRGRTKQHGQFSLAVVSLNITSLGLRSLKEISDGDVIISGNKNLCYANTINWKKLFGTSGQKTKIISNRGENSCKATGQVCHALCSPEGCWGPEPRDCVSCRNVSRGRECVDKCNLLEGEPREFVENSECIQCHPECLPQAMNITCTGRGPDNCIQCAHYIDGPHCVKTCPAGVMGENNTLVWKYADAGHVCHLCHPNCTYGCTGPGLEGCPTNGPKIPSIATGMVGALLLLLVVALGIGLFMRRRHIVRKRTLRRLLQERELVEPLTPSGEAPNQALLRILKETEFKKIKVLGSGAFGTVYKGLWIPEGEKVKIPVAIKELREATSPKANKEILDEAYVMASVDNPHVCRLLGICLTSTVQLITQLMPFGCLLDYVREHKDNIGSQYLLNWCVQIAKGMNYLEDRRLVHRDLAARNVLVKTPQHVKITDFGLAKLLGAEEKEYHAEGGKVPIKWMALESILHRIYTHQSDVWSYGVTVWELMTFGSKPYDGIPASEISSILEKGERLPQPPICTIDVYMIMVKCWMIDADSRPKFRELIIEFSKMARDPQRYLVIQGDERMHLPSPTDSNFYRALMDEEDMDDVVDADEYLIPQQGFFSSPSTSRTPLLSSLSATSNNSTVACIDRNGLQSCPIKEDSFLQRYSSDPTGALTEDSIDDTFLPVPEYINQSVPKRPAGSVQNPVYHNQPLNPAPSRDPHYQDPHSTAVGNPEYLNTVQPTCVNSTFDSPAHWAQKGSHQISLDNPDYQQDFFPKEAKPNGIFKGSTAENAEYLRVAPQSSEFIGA

SMILES	GI50 (Ba/F3-FL-EGFR) [nM]	IC50 ([1]; 72 h) [nM]	GI50 (Ba/F3-FL-EGFR-L858R) [nM]	GI50 [2] [nM]	GI50 [3] [nM]	IC50 [1] [nM]
CC(C)c1ccc(N2C[C@H](CS(C)(=O)=O)[C@H]2C)c2cnc(Nc3ccnc(-c4cnn(S(=O)(=O)N(C)C)c4)n3)cc12 [Compound H28]	595	48	50	23	68	–
CC(C)c1ccc(N2C[C@H](CS(C)(=O)=O)[C@H]2C)c2cnc(Nc3ccnc(-c4cnn(S(=O)(=O)CCOC5CC5)c4)n3)cc12 [Compound H31]	503	39	50	55	64	–
CCCS(=O)(=O)C[C@H]1CN(c2ccc(C(C)C)c3cc(Nc4ccnc(-c5cnn(S(=O)(=O)C6CC6)c5)n4)ncc23)[C@@H]1C [Compound H34]	656	37	65	28	73	–
COCCS(=O)(=O)n1cc(-c2nccc(Nc3cc4c(C(C)C)ccc(N5CC(CS(C)(=O)=O)C5)c4cn3)n2)cn1 [Compound H20]	2110	–	43	22	188	53
CC(C)c1ccc(N2CC(CS(C)(=O)=O)C2)c2cnc(Nc3ccnc(-c4cnn(S(=O)(=O)c5ccccn5)c4)n3)cc12 [Compound H16]	1360	264	235	122	652	–
COCCS(=O)(=O)n1cc(-c2nccc(Nc3cc4c(C(C)C)ccc(N5CC(CS(C)(=O)=O)C5)c4cn3)n2)cn1 [Compound H15]	148	–	5.7	4.3	8.6	6.6
COCCS(=O)(=O)n1cc(-c2nccc(Nc3cc4c(C(C)C)ccc(N5C[C@H](CS(C)(=O)=O)[C@H]5C)c4cn3)n2)cn1 [Compound H21]	76	4.3	2.9	1.8	4.4	–
CC(C)c1ccc(N2CC(N(C)S(C)(=O)=O)C2)c2cnc(Nc3ccnc(-c4cnn(S(=O)(=O)C5CC5)c4)n3)cc12 [Compound H25]	208	11	14	9.6	26	–
CC(C)c1ccc(N2CC(CS(C)(=O)=O)C2)c2cnc(Nc3ccnc(-c4cnn(CC#N)c4)n3)cc12 [Compound H26]	1420	128	74	56	336	–
CC(C)c1ccc(N2CC(CS(C)(=O)=O)C2)c2cnc(Nc3ccnc(-c4cnn(S(=O)(=O)C5COC5)c4)n3)cc12 [Compound H17]	858	58	56	33	127	–
CCOCCS(=O)(=O)n1cc(-c2nccc(Nc3cc4c(C(C)C)ccc(N5C[C@H](CS(C)(=O)=O)[C@H]5C)c4cn3)n2)cn1 [Compound H22]	229	14	17	13	14	–
CCCS(=O)(=O)N(C)[C@H]1CN(c2ccc(C(C)C)c3cc(Nc4ccnc(-c5cnn(S(=O)(=O)C6CC6)c5)n4)ncc23)[C@@H]1C [Compound H33]	202	7.1	14	5.9	13	–
CC(C)c1ccc(N2CC(CS(C)(=O)=O)C2)c2cnc(Nc3ccnc(-c4cnn(C)c4)n3)cc12 [Compound H29]	739	59	91	34	235	–
CC(C)c1ccc(N2CC(CS(C)(=O)=O)C2)c2cnc(Nc3ccnc(-c4cnn(S(=O)(=O)C5CCOC5)c4)n3)cc12 (stereo not drawn) [Compound H24]	458	20	42	12	94	–

The next lines start with the values.

GI50 (Ba/F3-FL-EGFR) [nM]	IC50 ([1]; 72 h) [nM]	GI50 (Ba/F3-FL-EGFR-L858R) [nM]	GI50 [2] [nM]	GI50 [3] [nM]	IC50 [1] [nM]	SMILES
903	234	206	83	78	–	CC(C)c1ccc(N2CC(N3CCCS3(=O)=O)C2)c2cnc(Nc3ccnc(N4CCC(O)C(F)C4)n3)cc12 (stereo not drawn) [Compound P34]
1090	159	33	8.3	14	–	COC1CCN(c2nccc(Nc3cc4c(C(C)C)ccc(N5CC(N(C)S(C)(=O)=O)C5)c4cn3)n2)CC1F (stereo not drawn) [Compound P36]
1140	339	83	33	34	–	COC1CCN(c2nccc(Nc3cc4c(C(C)C)ccc(N5CC(NS(=O)(=O)C6COC6)C5)c4cn3)n2)CC1F (stereo not drawn) [Compound P37]
1610	179	113	38	42	–	CCS(=O)(=O)NC1CN(c2ccc(C(C)C)c3cc(Nc4ccnc(N5CCC(O)C(F)C5)n4)ncc23)C1 (stereo not drawn) [Compound P47]
1170	144	76	29	31	–	CCCS(=O)(=O)NC1CN(c2ccc(C(C)C)c3cc(Nc4ccnc(N5CCC(O)C(F)C5)n4)ncc23)C1 (stereo not drawn) [Compound P48]
1460	295	86	19	18	–	CCN(C1CN(c2ccc(C(C)C)c3cc(Nc4ccnc(N5CCC(OC)C(F)C5)n4)ncc23)C1)S(C)(=O)=O (stereo not drawn) [Compound P31]
421	53	20	5.8	2.5	–	CO[C@@H]1CCN(c2nccc(Nc3cc4c(C(C)C)ccc(N5C[C@H](N(C)S(C)(=O)=O)[C@H]5C)c4cn3)n2)C[C@@H]1F [Compound P40a]
2200	226	169	74	64	–	CC(C)c1ccc(N2CC(NS(=O)(=O)N(C)C)C2)c2cnc(Nc3ccnc(N4CCC(O)C(F)C4)n3)cc12 (stereo not drawn) [Compound P27]
1070	316	121	36	38	–	COCCS(=O)(=O)N(C)C1CN(c2ccc(C(C)C)c3cc(Nc4ccnc(N5CCC(OC)C(F)C5)n4)ncc23)C1 (stereo not drawn) [Compound P49]
1500	351	218	115	91	–	CC(C)c1ccc(N2CC(NS(=O)(=O)c3ccoc3)C2)c2cnc(Nc3ccnc(N4CCC(O)C(F)C4)n3)cc12 (stereo not drawn) [Compound P33]
761	90	16	6.6	5.8	–	[2H]C([2H])([2H])N([C@H]1CN(c2ccc(C(C)C)c3cc(Nc4ccnc(N5CCC(OC)C(F)C5)n4)ncc23)[C@@H]1C)S(C)(=O)=O (stereo partly drawn) [Compound P42]
6620	3510	1890	542	720	–	COC1CCN(c2nccc(Nc3cc4c(C(C)C)ccc(N5CC(N(C)S(=O)(=O)C(F)(F)F)C5)c4cn3)n2)CC1F (stereo not drawn) [Compound P50]
760	60	24	16	14	–	CC(C)c1ccc(N2CC(N(C)S(C)(=O)=O)C2)c2cnc(Nc3ccnc(N4CC[C@H](O)[C@H](F)C4)n3)cc12 [Compound P39b]
465	81	25	5.9	4.8	–	CO[C@H]1CCN(c2nccc(Nc3cc4c(C(C)C)ccc(N5C[C@H](N(C)S(C)(=O)=O)[C@H]5C)c4cn3)n2)C[C@H]1F [Compound P40b]
8760	3120	2520	1690	1660	–	CC(=O)NC1CN(c2ccc(C(C)C)c3cc(Nc4ccnc(N5CCC(O)C(F)C5)n4)ncc23)C1 (stereo not drawn) [Compound P35]
775	110	21	10	6.7	–	CCS(=O)(=O)N[C@H]1CN(c2ccc(C(C)C)c3cc(Nc4ccnc(N5CCC(OC)C(F)C5)n4)ncc23)[C@@H]1C (stereo partly drawn) [Compound P44]
